Tested on: MV-4-11 cells
Test: Gene expression microarray analysis (Affymetrix PrimeView) and GSEA
Format: cell-based, human
Design: RFU PODN (11730768_x_at) / Fold change /veh PODN (11730768_x_at) / RFU LINC00158 (11744669_a_at) / Fold change /veh LINC00158 (11744669_a_at) / RFU DUSP10 (11751237_a_at) / Fold change /veh DUSP10 (11751237_a_at) / RFU ID3 (11757404_x_at) / Fold change /veh ID3 (11757404_x_at) / RFU PLEKHG5 (11737974_s_at) / Fold change /veh PLEKHG5 (11737974_s_at) / RFU LRRC4B (11730491_at) / Fold change /veh LRRC4B (11730491_at) / RFU GIMAP4 (11747438_a_at) / Fold change /veh GIMAP4 (11747438_a_at) / RFU KRT8 (11758183_x_at) / Fold change /veh KRT8 (11758183_x_at) / RFU CNN1 (11734310_a_at) / Fold change /veh CNN1 (11734310_a_at) / RFU VPS37D (11726825_at) / Fold change /veh VPS37D (11726825_at) / RFU C10orf10 (11716522_x_at) / Fold change /veh C10orf10 (11716522_x_at) / RFU KIR2DL2 /// KIR2DL4 /// KIR2DL5A /// KIR2DL5B /// KIR2DS1 /// KIR2DS2 /// KIR2DS3 /// KIR2DS4 /// KIR3DL3 /// KIR3DL3 /// KIR3DS1 (11738374_at) / Fold change /veh KIR2DL2 /// KIR2DL4 /// KIR2DL5A /// KIR2DL5B /// KIR2DS1 /// KIR2DS2 /// KIR2DS3 /// KIR2DS4 /// KIR3DL3 /// KIR3DL3 /// KIR3DS1 (11738374_at) / RFU C1QL1 (11718748_at) / Fold change /veh C1QL1 (11718748_at) / RFU TMPRSS4 (11747572_a_at) / Fold change /veh TMPRSS4 (11747572_a_at) / RFU HAMP (11756126_x_at) / Fold change /veh HAMP (11756126_x_at) / RFU RNFT2 (11725882_a_at) / Fold change /veh RNFT2 (11725882_a_at) / RFU NR4A2 (11747474_a_at) / Fold change /veh NR4A2 (11747474_a_at) / RFU ABCC12 (11746883_a_at) / Fold change /veh ABCC12 (11746883_a_at) / RFU TMEM136 (11760407_x_at) / Fold change /veh TMEM136 (11760407_x_at) / RFU CLDN22 /// WWC2 (11732394_at) / Fold change /veh CLDN22 /// WWC2 (11732394_at) / RFU HLA-DPB1 (11760878_x_at) / Fold change /veh HLA-DPB1 (11760878_x_at) / RFU SPINT1 (11716480_a_at) / Fold change /veh SPINT1 (11716480_a_at) / RFU GAP43 (11754022_s_at) / Fold change /veh GAP43 (11754022_s_at) / RFU A4GNT (11735810_at) / Fold change /veh A4GNT (11735810_at) / RFU PRB3 (11715151_x_at) / Fold change /veh PRB3 (11715151_x_at) / RFU TUBB4B (11761932_at) / Fold change /veh TUBB4B (11761932_at) / RFU CAPN14 (11732068_a_at) / Fold change /veh CAPN14 (11732068_a_at) / RFU TMCC2 (11721928_a_at) / Fold change /veh TMCC2 (11721928_a_at) / RFU IRGQ (11745062_a_at) / Fold change /veh IRGQ (11745062_a_at) / RFU FAM174B (11720279_a_at) / Fold change /veh FAM174B (11720279_a_at) / RFU TMPRSS4 (11748680_a_at) / Fold change /veh TMPRSS4 (11748680_a_at) / RFU FAM212B (11763350_a_at) / Fold change /veh FAM212B (11763350_a_at) / RFU PLEKHG5 (11743358_a_at) / Fold change /veh PLEKHG5 (11743358_a_at) / RFU ZSCAN30 (11745921_a_at) / Fold change /veh ZSCAN30 (11745921_a_at) / RFU CMKLR1 (11741424_a_at) / Fold change /veh CMKLR1 (11741424_a_at) / RFU LOC101060620 /// MAPK8IP1 (11723275_at) / Fold change /veh LOC101060620 /// MAPK8IP1 (11723275_at) / RFU SPTSSB (11747773_x_at) / Fold change /veh SPTSSB (11747773_x_at) / RFU PRSS12 (11739890_at) / Fold change /veh PRSS12 (11739890_at) / RFU BIN1 (11741810_x_at) / Fold change /veh BIN1 (11741810_x_at) / RFU WNT11 (11732464_a_at) / Fold change /veh WNT11 (11732464_a_at) / RFU C10orf10 (11716521_a_at) / Fold change /veh C10orf10 (11716521_a_at) / RFU C5orf56 (11738089_at) / Fold change /veh C5orf56 (11738089_at) / RFU CYB561 (11721691_x_at) / Fold change /veh CYB561 (11721691_x_at) / RFU ANKRD19P (11752326_a_at) / Fold change /veh ANKRD19P (11752326_a_at) / RFU OR2T12 /// OR2T33 /// OR2T8 (11738714_s_at) / Fold change /veh OR2T12 /// OR2T33 /// OR2T8 (11738714_s_at) / RFU VCAN (11748164_a_at) / Fold change /veh VCAN (11748164_a_at) / RFU JSRP1 (11732532_at) / Fold change /veh JSRP1 (11732532_at) / RFU KRTAP10-11 (11738290_x_at) / Fold change /veh KRTAP10-11 (11738290_x_at) / RFU MYO3A (11730013_a_at) / Fold change /veh MYO3A (11730013_a_at) / RFU EBF3 (11725865_a_at) / Fold change /veh EBF3 (11725865_a_at) / RFU CAMK2N1 (11719241_x_at) / Fold change /veh CAMK2N1 (11719241_x_at) / RFU C5orf56 (11738088_a_at) / Fold change /veh C5orf56 (11738088_a_at) / RFU OLFML3 (11715873_a_at) / Fold change /veh OLFML3 (11715873_a_at) / RFU LOC100653217 /// NTM (11731650_a_at) / Fold change /veh LOC100653217 /// NTM (11731650_a_at) / RFU MAPK11 (11762145_a_at) / Fold change /veh MAPK11 (11762145_a_at) / RFU FIZ1 (11724087_x_at) / Fold change /veh FIZ1 (11724087_x_at) / RFU OASL (11726364_x_at) / Fold change /veh OASL (11726364_x_at) / RFU SOX15 (11748057_x_at) / Fold change /veh SOX15 (11748057_x_at) / RFU CD79A (11719716_a_at) / Fold change /veh CD79A (11719716_a_at) / RFU HIST1H1D (11736915_at) / Fold change /veh HIST1H1D (11736915_at) / RFU CASKIN2 (11723855_a_at) / Fold change /veh CASKIN2 (11723855_a_at) / RFU LOC730098 (11760151_x_at) / Fold change /veh LOC730098 (11760151_x_at) / RFU OR4N2 (11742367_at) / Fold change /veh OR4N2 (11742367_at) / RFU PRRT2 (11749266_a_at) / Fold change /veh PRRT2 (11749266_a_at) / RFU SNX32 (11753110_a_at) / Fold change /veh SNX32 (11753110_a_at) / RFU CDHR5 (11726645_a_at) / Fold change /veh CDHR5 (11726645_a_at) / RFU RCAN1 (11760418_a_at) / Fold change /veh RCAN1 (11760418_a_at) / RFU FAM167A (11723789_a_at) / Fold change /veh FAM167A (11723789_a_at) / RFU FAM26E (11764081_at) / Fold change /veh FAM26E (11764081_at) / RFU ISYNA1 (11749810_s_at) / Fold change /veh ISYNA1 (11749810_s_at) / RFU ACY1 (11761880_at) / Fold change /veh ACY1 (11761880_at) / RFU 11764098_at / Fold change /veh 11764098_at / RFU SAMD14 (11745864_x_at) / Fold change /veh SAMD14 (11745864_x_at) / RFU NPB (11741838_a_at) / Fold change /veh NPB (11741838_a_at) / RFU TMPRSS6 (11731388_a_at) / Fold change /veh TMPRSS6 (11731388_a_at) / RFU KRTAP10-2 (11738614_at) / Fold change /veh KRTAP10-2 (11738614_at) / RFU ARHGAP8 /// PRR5-ARHGAP8 (11727945_x_at) / Fold change /veh ARHGAP8 /// PRR5-ARHGAP8 (11727945_x_at) / RFU KRTAP5-7 /// NADSYN1 (11734609_at) / Fold change /veh KRTAP5-7 /// NADSYN1 (11734609_at) / RFU RASL12 (11751679_a_at) / Fold change /veh RASL12 (11751679_a_at) / RFU CDKN2B (11736163_a_at) / Fold change /veh CDKN2B (11736163_a_at) / RFU PRF1 (11729649_at) / Fold change /veh PRF1 (11729649_at) / RFU, ZNF638 /// ZNF638-IT1 / Fold change vs veh, ZNF638 /// ZNF638-IT1 / RFU, PANK3 / Fold change vs veh, PANK3 / RFU, SH3YL1 / Fold change vs veh, SH3YL1 / RFU, ZEB2 / Fold change vs veh, ZEB2 / RFU, NRIP1 / Fold change vs veh, NRIP1 / RFU, PTTG1IP / Fold change vs veh, PTTG1IP / RFU, CAPN2 / Fold change vs veh, CAPN2 / RFU, MED14 / Fold change vs veh, MED14 / RFU, SNORA58 / Fold change vs veh, SNORA58 / RFU, C1orf63 / Fold change vs veh, C1orf63 / RFU, LRRFIP1 / Fold change vs veh, LRRFIP1 / RFU, NDUFAF7 / Fold change vs veh, NDUFAF7 / RFU, SLC12A2 / Fold change vs veh, SLC12A2 / RFU, IBTK / Fold change vs veh, IBTK / RFU, ESF1 / Fold change vs veh, ESF1 / Fold change vs veh, TMEM50B / RFU, TAOK1 / Fold change vs veh, TAOK1 / RFU, ACBD3 / Fold change vs veh, ACBD3 / RFU, TMA16 / Fold change vs veh, TMA16 / RFU, RWDD3 / Fold change vs veh, RWDD3 / RFU, BCAT1 / Fold change vs veh, BCAT1 / RFU, EDEM3 / Fold change vs veh, EDEM3 / RFU, TMEM33 / Fold change vs veh, TMEM33 / RFU, WDR75 / Fold change vs veh, WDR75 / RFU, AHCTF1 / Fold change vs veh, AHCTF1 / RFU, TFRC / Fold change vs veh, TFRC / RFU, ZDHHC17 / Fold change vs veh, ZDHHC17 / RFU, NOM1 / Fold change vs veh, NOM1 / RFU, ARL8B / Fold change vs veh, ARL8B / RFU, ZBTB11 / Fold change vs veh, ZBTB11 / RFU, TAMM41 / Fold change vs veh, TAMM41 / RFU, KIAA1704 /// LOC100996395 / Fold change vs veh, KIAA1704 /// LOC100996395 / RFU, ING1 / Fold change vs veh, ING1 / RFU, TRMT61B / Fold change vs veh, TRMT61B / RFU, FUBP3 / Fold change vs veh, FUBP3 / RFU, TP53 / Fold change vs veh, TP53 / RFU, TNKS2 / Fold change vs veh, TNKS2 / RFU, ZFP14 / Fold change vs veh, ZFP14 / RFU, ACTR2 / Fold change vs veh, ACTR2 / RFU, PPP3R1 / Fold change vs veh, PPP3R1 / RFU, PIK3R1 / Fold change vs veh, PIK3R1 / RFU, HNRNPA1 / Fold change vs veh, HNRNPA1 / RFU, RNF170 / Fold change vs veh, RNF170 / RFU, ZNF28 / Fold change vs veh, ZNF28 / RFU, RNGTT / Fold change vs veh, RNGTT / RFU, OGT / Fold change vs veh, OGT / RFU, BRD1 / Fold change vs veh, BRD1 / RFU, MARS / Fold change vs veh, MARS / RFU, ZNF655 / Fold change vs veh, ZNF655 / RFU, FAHD1 / Fold change vs veh, FAHD1 / RFU, BDP1 / Fold change vs veh, BDP1 / RFU, LRRCC1 / Fold change vs veh, LRRCC1 / RFU, ARID1A / Fold change vs veh, ARID1A / RFU, ZNF146 / Fold change vs veh, ZNF146 / RFU, ZNF330 / Fold change vs veh, ZNF330 / RFU, GPN3 / Fold change vs veh, GPN3 / RFU, C9orf123 / Fold change vs veh, C9orf123 / RFU, N4BP2L2 / Fold change vs veh, N4BP2L2 / RFU, ARFIP1 / Fold change vs veh, ARFIP1 / RFU, FAM179B / Fold change vs veh, FAM179B / RFU, BCL10 / Fold change vs veh, BCL10 / RFU, UHRF1BP1L / Fold change vs veh, UHRF1BP1L / RFU, BET1 / Fold change vs veh, BET1 / RFU, CNOT2 / Fold change vs veh, CNOT2 / RFU, ZNF268 / Fold change vs veh, ZNF268 / Fold change vs veh, ZNF507 / RFU, DGCR2 / Fold change vs veh, DGCR2 / RFU, WDSUB1 / Fold change vs veh, WDSUB1 / Fold change vs veh, HSP90B1 /// MIR3652 / RFU, ADSS / Fold change vs veh, ADSS / RFU, GK / Fold change vs veh, GK / RFU, ZNF148 / Fold change vs veh, ZNF148 / RFU, TAF9 / Fold change vs veh, TAF9 / RFU, SLC1A5 / Fold change vs veh, SLC1A5 / RFU, SLMO2 / Fold change vs veh, SLMO2 / RFU, ABCC4 / Fold change vs veh, ABCC4 / RFU, LOC101060439 /// RAP1B / Fold change vs veh, LOC101060439 /// RAP1B / RFU, RFX7 / Fold change vs veh, RFX7 / RFU, GTPBP10 / Fold change vs veh, GTPBP10 / RFU, CNEP1R1 / Fold change vs veh, CNEP1R1 / RFU, BIVM-ERCC5 /// ERCC5 / Fold change vs veh, BIVM-ERCC5 /// ERCC5 / RFU, ILF3 / Fold change vs veh, ILF3 / RFU 11762660_at / Fold change /veh 11762660_at / RFU VCAN (11757783_s_at) / Fold change /veh VCAN (11757783_s_at) / RFU DDX43 (11728927_at) / Fold change /veh DDX43 (11728927_at) / RFU KRT8 (11758188_x_at) / Fold change /veh KRT8 (11758188_x_at) / RFU NKD1 (11759106_at) / Fold change /veh NKD1 (11759106_at) / RFU SRD5A1 (11742802_a_at) / Fold change /veh SRD5A1 (11742802_a_at) / RFU TPSAB1 /// TPSB2 (11721975_s_at) / Fold change /veh TPSAB1 /// TPSB2 (11721975_s_at) / RFU GSTM3 (11746129_a_at) / Fold change /veh GSTM3 (11746129_a_at) / RFU IL23R (11737362_x_at) / Fold change /veh IL23R (11737362_x_at) / RFU TMEM51 (11727254_a_at) / Fold change /veh TMEM51 (11727254_a_at) / RFU PIWIL2 (11732686_x_at) / Fold change /veh PIWIL2 (11732686_x_at) / RFU ORM1 (11744905_x_at) / Fold change /veh ORM1 (11744905_x_at) / RFU CCDC152 (11743942_at) / Fold change /veh CCDC152 (11743942_at) / RFU ECM1 (11717891_a_at) / Fold change /veh ECM1 (11717891_a_at) / RFU IL23R (11748794_a_at) / Fold change /veh IL23R (11748794_a_at) / RFU TNFAIP8L3 (11732012_x_at) / Fold change /veh TNFAIP8L3 (11732012_x_at) / RFU MBOAT4 (11741988_at) / Fold change /veh MBOAT4 (11741988_at) / RFU 11764193_at / Fold change /veh 11764193_at / RFU TMEM53 (11763286_at) / Fold change /veh TMEM53 (11763286_at) / RFU MAGEB2 (11727129_at) / Fold change /veh MAGEB2 (11727129_at) / RFU TMEM200A (11744735_a_at) / Fold change /veh TMEM200A (11744735_a_at) / RFU CCDC152 (11751479_a_at) / Fold change /veh CCDC152 (11751479_a_at) / RFU FAM211A (11726209_a_at) / Fold change /veh FAM211A (11726209_a_at) / RFU RGS16 (11746705_a_at) / Fold change /veh RGS16 (11746705_a_at) / RFU VCAN (11755009_s_at) / Fold change /veh VCAN (11755009_s_at) / RFU RHOB (11743442_s_at) / Fold change /veh RHOB (11743442_s_at) / RFU RGS16 (11720943_a_at) / Fold change /veh RGS16 (11720943_a_at) / RFU RGS16 (11720944_at) / Fold change /veh RGS16 (11720944_at) / RFU, VPS4B / Fold change vs veh, VPS4B / RFU, CREB1 / Fold change vs veh, CREB1 / RFU, DNAJC13 / Fold change vs veh, DNAJC13 / RFU, GNAQ / Fold change vs veh, GNAQ / RFU, CDK5R1 / Fold change vs veh, CDK5R1 / RFU, ZRANB3 / Fold change vs veh, ZRANB3 / RFU, CUL4A / Fold change vs veh, CUL4A / RFU, CCNY / Fold change vs veh, CCNY / RFU, UFL1 / Fold change vs veh, UFL1 / RFU, COG3 / Fold change vs veh, COG3 / RFU, DIAPH2 / Fold change vs veh, DIAPH2 / RFU, SKA2 / Fold change vs veh, SKA2 / RFU, AFF3 / Fold change vs veh, AFF3 / RFU, LMF1 / Fold change vs veh, LMF1 / RFU, IPO11 / Fold change vs veh, IPO11 / RFU, DFFB / Fold change vs veh, DFFB / RFU, FOXP1 / Fold change vs veh, FOXP1 / RFU, CARD8 / Fold change vs veh, CARD8 / RFU, STRN3 / Fold change vs veh, STRN3 / RFU, ADK / Fold change vs veh, ADK / RFU, RASSF2 / Fold change vs veh, RASSF2 / RFU, WIPF1 / Fold change vs veh, WIPF1 / RFU, LARP1B / Fold change vs veh, LARP1B / RFU, RASA1 / Fold change vs veh, RASA1 / RFU, RB1 / Fold change vs veh, RB1 / RFU, PPFIA1 / Fold change vs veh, PPFIA1 / RFU, MAT2A / Fold change vs veh, MAT2A / RFU, CCT5 / Fold change vs veh, CCT5 / RFU, WDR92 / Fold change vs veh, WDR92 / RFU, CUX1 / Fold change vs veh, CUX1 / RFU, TTC7A / Fold change vs veh, TTC7A / RFU, TMEM135 / Fold change vs veh, TMEM135 / RFU, DEPTOR / Fold change vs veh, DEPTOR / RFU, CPM / Fold change vs veh, CPM / RFU, DNAJB6 / Fold change vs veh, DNAJB6 / RFU, CACNA2D3 / Fold change vs veh, CACNA2D3 / RFU, DTX4 / Fold change vs veh, DTX4 / RFU, TFCP2 / Fold change vs veh, TFCP2 / RFU, GMCL1 /// GMCL1P1 / Fold change vs veh, GMCL1 /// GMCL1P1 / RFU, AEBP2 / Fold change vs veh, AEBP2 / RFU, SNHG1 /// SNORD22 /// SNORD25 /// SNORD26 /// SNORD27 /// SNORD28 /// SNORD29 /// SNORD31 / Fold change vs veh, SNHG1 /// SNORD22 /// SNORD25 /// SNORD26 /// SNORD27 /// SNORD28 /// SNORD29 /// SNORD31 / Fold change (Aza/veh), C12orf56 (ProbeSet 11735607_a_at) / Fold change (ACY-1035/veh), C12orf56 (ProbeSet 11735607_a_at) / Fold change (Aza/veh), FGFR1OP (ProbeSet 11751329_s_at) / Fold change (ACY-1035/veh), FGFR1OP (ProbeSet 11751329_s_at) / Fold change (Aza/veh), VPS36 (ProbeSet 11739960_a_at) / Fold change (ACY-1035/veh), VPS36 (ProbeSet 11739960_a_at) / RFU SYPL1 (11715823_x_at) / Fold change /veh SYPL1 (11715823_x_at) / RFU IGFBP7 (11715501_s_at) / Fold change /veh IGFBP7 (11715501_s_at) / RFU REEP3 (11722064_at) / Fold change /veh REEP3 (11722064_at) / RFU IGLL1 (11728026_x_at) / Fold change /veh IGLL1 (11728026_x_at): dose or concentration left out as unconfirmed
Conditions: ProbeSet 11741311_a_at; LIST B

For `Nc1ccc(-c2cccs2)cc1NC(=O)c1ccc2c(c1)cc(C1CC1)n2CCN1CCOCC1` [ACY-1035], the “Fold change vs veh, ZNF655” value was 0.99.
